Experimental findings from US10106526B2, “Inhibitors of cyclin-dependent kinase 7 (CDK7)” (SYROS PHARMACEUTICALS, INC., priority 2014, dated 2018) are described below.

Test [1] addresses CDK7/Cyclin H/MAT1 trimeric complex (Homo sapiens, UniProt P50613). Briefly: CDK7 kinase assay, Caliper/LabChip EZ Reader (Biortus Biosciences). Conditions: CDK7/Cyclin H/MAT1 10 nM, ATP 2 mM, FAM-CDK7tide 2 μM, 30 min incubation, read-out: CDK7 Inhibition (IC50). It is filed as biochemical. The protocol: Compounds of the invention were further assayed for CDK7 activity at Biortus Biosciences (Jiangyin, Jiangsu Province, P.R. of China) using a CDK7 kinase assay developed with a Caliper/LabChip EZ Reader (Perkin Elmer, Waltham, Mass.). […] The incubation period was chosen such that the total fraction of phosphorylated peptide product produced was <20% for the uninhibited kinase.

In a further test the test system is A673 cells. Briefly: Inhibition of proliferation of A673 cells (CyQUANT, 72 hour). The settings on record: 72 hour proliferation. It is filed as cell-based, human. The protocol: A673 cells are a cell line derived from human muscle Ewing's sarcoma. Representative compounds of the invention were tested at different concentrations (from 4 μM to 126.4 pM; 0.5 log serial dilutions) for their ability to inhibit the proliferation of A673 cells. Known CDK inhibitors flavopiridol and triptolide were used as positive controls. Cells were grown in Dulbecco's Modified Eagle's Medium, +10% FBS+1 mM Sodium Pyruvate. The cells were cultured at 37° C. in a humidified chamber in the presence of 5% CO2. Proliferation assays were conducted over a 72 hour time period. CyQUANT® (Life Technologies, Chicago, Ill. USA) was used to assess the anti-proliferative effects of the compounds following manufacturer's directions and utilizing the reagents supplied with the CyQUANT® kit. In this table, “A” represents an IC50 of less than 500 nM; “B” an IC50 of between 500 nM and 5 μM; and “C” an IC50 of greater than 5 μM.

A further test deals with T1, CDK7 (Homo sapiens, UniProt P50613).
T1 construct: purchased Life Technologies (Adapta kinase assay service)
T1 sequence (P50613 whole entry): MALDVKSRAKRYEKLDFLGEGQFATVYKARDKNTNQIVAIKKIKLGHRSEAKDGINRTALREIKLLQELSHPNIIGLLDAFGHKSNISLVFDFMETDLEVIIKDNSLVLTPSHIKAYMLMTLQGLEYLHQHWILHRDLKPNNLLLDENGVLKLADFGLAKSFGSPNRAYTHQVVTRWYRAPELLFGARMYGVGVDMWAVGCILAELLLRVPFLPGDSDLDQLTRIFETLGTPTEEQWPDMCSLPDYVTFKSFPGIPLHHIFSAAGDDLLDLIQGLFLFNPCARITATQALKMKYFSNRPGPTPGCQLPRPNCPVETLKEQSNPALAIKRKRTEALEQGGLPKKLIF
T1 sequence (P51946 whole entry partner): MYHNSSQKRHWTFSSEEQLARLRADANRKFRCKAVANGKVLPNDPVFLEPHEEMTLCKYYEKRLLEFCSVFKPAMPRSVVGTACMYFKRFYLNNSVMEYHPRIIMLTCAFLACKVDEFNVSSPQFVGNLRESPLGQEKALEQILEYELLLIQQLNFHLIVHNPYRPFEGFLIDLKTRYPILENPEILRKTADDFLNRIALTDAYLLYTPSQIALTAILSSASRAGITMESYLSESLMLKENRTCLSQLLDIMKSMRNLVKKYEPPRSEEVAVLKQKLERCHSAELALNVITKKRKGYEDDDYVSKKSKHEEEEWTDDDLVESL
T1 sequence (P51948 whole entry partner): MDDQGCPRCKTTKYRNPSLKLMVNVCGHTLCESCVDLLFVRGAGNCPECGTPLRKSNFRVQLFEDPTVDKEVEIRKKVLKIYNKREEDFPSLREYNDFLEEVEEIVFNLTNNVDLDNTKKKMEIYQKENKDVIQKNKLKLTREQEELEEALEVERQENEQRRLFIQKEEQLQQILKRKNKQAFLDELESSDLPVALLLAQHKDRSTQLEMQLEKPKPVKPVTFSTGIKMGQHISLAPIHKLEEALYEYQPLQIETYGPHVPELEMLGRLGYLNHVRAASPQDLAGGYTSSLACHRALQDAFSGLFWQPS
Nature of the test: CDK7 kinase activity, Adapta kinase assay (Life Technologies). It is filed as biochemical. Conditions: Adapta kinase assay at Life Technologies; 10 μM down to 0.514 nM, 3-fold serial dilutions; read-out: CDK7 Inhibition (IC50). Here is the method:
Compounds of the invention were assayed for CDK7 activity at Life Technologies™ (Grand Island, N.Y.) using their commercially available Adapta® kinase assay services. Compounds were tested at concentrations ranging from 10 μM down to 0.514 nM in a series of 3-fold serial dilutions. Details of these assays, including substrates used, are available on the Life Technologies web site (http://www.lifetechnologies.com/us/en/home/life-science/drug-discovery/target-and-lead-identification-and-validation/kinasebiology/kinase-activity-assays.html).

The test system of the next test is Jurkat cells. Briefly: Inhibition of proliferation of Jurkat cells (CellTiter-Glo, 72 hour). Conditions: 10 μM to 316 pM. It is filed as cell-based, human. The protocol: Jurkat cells are a cell line established from a human T cell leukemia. Representative compounds of the invention were tested at different concentrations (from 10 μM to 316 pM; 0.5 log serial dilutions) for their ability to inhibit the proliferation of Jurkat cells. Known CDK inhibitors flavopiridol and triptolide were used as positive controls. Cells were grown in RPMI 1640+10% FBS+1% Glutamax. The cells were supplemented with FBS (Life Technologies) and 100 U·mL^− penicillin, 100 μg·mL^− streptomycin (Invitrogen) and cultured at 37° C. in a humidified chamber in the presence of 5% CO2. Proliferation assays were conducted over a 72 hour time period. CellTiter-Glo® (Promega Corporation, Madison, Wis. USA) was used to assess the anti-proliferative effects of the compounds following manufacturer's directions and utilizing the reagents supplied with the CellTiter-Glo® kit. In this table, “A” represents an IC50 of less than 500 nM; “B” an IC50 of between 500 nM and 5 μM; and “C” an IC50 of greater than 5 μM.
Background: Cellular ATP, detected with luciferase, serves as a proxy for viable cell number.

A value given as a limit tells only on which side of the number the result lay.

CDK7/Cyclin H/MAT1 trimeric complex, sequence (P50613 whole entry): as the sequence (P50613 whole entry) above
CDK7/Cyclin H/MAT1 trimeric complex, sequence (P51946 whole entry partner): as the sequence (P51946 whole entry partner) above
CDK7/Cyclin H/MAT1 trimeric complex, sequence (P51948 whole entry partner): as the sequence (P51948 whole entry partner) above

Broadly, the IC50 is the concentration that inhibits the measured activity by half. In the case of `C=CC(=O)NC1CN(C2CCCC(Nc3ncc(Cl)c(-c4c[nH]c5ccccc45)n3)C2)C1` (mixture of isomers) [Compound 255], the IC50 in test [1] was under 100 nM; in the test with A673 cells, under 500 nM.

Turning to `C=CC(=O)NC1CCCN(C2CCCC(Nc3ncc(Cl)c(-c4c[nH]c5ccccc45)n3)C2)C1` (mixture of isomers) [Compound 256], the figures for the IC50 (in test [1]; in the test on A673 cells) were under 100 nM and under 500 nM, respectively.

Consider `C=CC(=O)NC1CC2CCC(C1)N2C1CCCC(Nc2ncc(Cl)c(-c3c[nH]c4ccccc34)n2)C1` (mixture of isomers) [Compound 259], for which the IC50 in test [1] was 100 to 1000 nM; in the test on A673 cells, under 500 nM.

`C=CC(=O)N1CCCC(CN(C(=O)C=C)C2CCC(Nc3ncc(Cl)c(-c4c[nH]c5ccccc45)n3)CC2)C1` (stereo not drawn) [Compound 191-1, N-[4-[[5-chloro-4-(1H-indol-3-yl)pyrimidin-2-yl]amino]cyclohexyl]-N-[(1-prop-2-enoyl-3-piperidyl)methyl]prop-2-enamide]: the IC50 is under 100 nM at CDK7, under 500 nM in the test on Jurkat cells (Homo sapiens) and 500 to 5000 nM in the test with A673 cells (Homo sapiens).

In the case of `C=CC(=O)N1CCC(NC(=O)N2CCC[C@@H](Nc3ncc(Cl)c(-c4c[nH]c5ccccc45)n3)C2)CC1` [Compound 205], the IC50 is 100 to 1000 nM at CDK7, 500 to 5000 nM in the test with Jurkat cells and under 500 nM in the test on A673 cells.

As to `O=C(/C=C/CN1CCOCC1)N1CCC(C(=O)N2CC[C@H](Nc3ncc(Cl)c(-c4c[nH]c5ccccc45)n3)C2)CC1` [Compound 211, (S,E)-1-(4-(3-((5-chloro-4-(1H-indol-3-yl)pyrimidin-2-yl)amino)pyrrolidine-1-carbonyl)piperidin-1-yl)-4-morpholinobut-2-en-1-One], the IC50 at CDK7 is 100 to 1000 nM; with Jurkat cells (Homo sapiens) it was over 5000 nM; with A673 cells (Homo sapiens), under 500 nM.

Consider `C=CC(=O)N1CCC(C(=O)N2CC[C@@H](Nc3ncc(Cl)c(-c4c[nH]c5ccccc45)n3)C2)CC1` [Compound 214, 1-[4-[(3R)-3-[[5-chloro-4-(1H-indol-3-yl)pyrimidin-2-yl]amino]pyrrolidine-1-carbonyl]-1-piperidyl]prop-2-en-1-One], for which the IC50 at CDK7 was 100 to 1000 nM; in the test with Jurkat cells (Homo sapiens) it was over 5000 nM; with A673 cells (Homo sapiens), under 500 nM.

With `C=CC(=O)N1CCN(C2CCCC(Nc3ncc(Cl)c(-c4c[nH]c5ccccc45)n3)C2)C(C)C1` (stereo not drawn) [Compound 257], the IC50 is 100 to 1000 nM in test [1] and under 500 nM in the test on A673 cells.

On to `C=CC(=O)Nc1ccc(CN[C@H]2CCC[C@@H](Nc3ncc(Cl)c(-c4c[nH]c5ccccc45)n3)C2)nc1` [Compound 258], for which the IC50 is under 100 nM in test [1] and under 500 nM with A673 cells (Homo sapiens).

In the case of `C=CC(=O)N1CCN(C2CCCC(Nc3ncc(Cl)c(-c4c[nH]c5ccccc45)n3)C2)C(C)C1` (stereo not drawn) [Compound 260], the half-maximal inhibitory concentration (IC50) in test [1] was under 100 nM; in the test on A673 cells it was under 500 nM.

Consider `CN(C)C/C=C/C(=O)Nc1ccc(CN[C@H]2CCC[C@@H](Nc3ncc(Cl)c(-c4c[nH]c5ccccc45)n3)C2)nc1` [Compound 261], for which the IC50 in test [1] was under 100 nM; with A673 cells (Homo sapiens) it was under 500 nM.

As to `CCc1cnc(N[C@@H]2CCC[C@H](NC(=O)c3ccc(NC(=O)/C=C/CN(C)C)cn3)C2)nc1-c1c[nH]c2ccccc12` [Compound 262, 5-[[(E)-4-(dimethylamino)but-2-enoyl]amino]-N-[(1S,3R)-3-[[5-ethyl-4-(1H-indol-3-yl)pyrimidin-2-yl]amino]cyclohexyl]pyridine-2-carboxamide], the IC50 is under 100 nM in test [1] and under 500 nM in the test with A673 cells (Homo sapiens).

Take `CN(C)C/C=C/C(=O)Nc1ccc(C(=O)N[C@H]2CCC[C@@H](Nc3ncc(Cl)c(-c4cccc5[nH]ccc45)n3)C2)nc1` [Compound 264, N-((1S,3R)-3-((5-chloro-4-(1H-indol-4-yl)pyrimidin-2-yl)amino)cyclohexyl)-5-((E)-4-(dimethylamino)but-2-enamido)picolinamide]: the IC50 in test [1] is under 100 nM; with A673 cells (Homo sapiens), under 500 nM.

With `Cc1cnc(N[C@@H]2CCC[C@H](NC(=O)c3ccc(NC(=O)/C=C/CN(C)C)cn3)C2)nc1-c1c[nH]c2ccccc12` [Compound 265, N-((1S,3R)-3-((4-(1H-indol-3-yl)-5-methylpyrimidin-2-yl)amino)cyclohexyl)-5-((E)-4-(dimethylamino)but-2-enamido)picolinamide], the 50% inhibitory concentration (IC50) was under 100 nM in test [1] and under 500 nM in the test with A673 cells (Homo sapiens).

On to `CN(C)C/C=C/C(=O)Nc1ccc(C(=O)N[C@@]2(C)CCC[C@@H](Nc3ncc(Cl)c(-c4c[nH]c5ccccc45)n3)C2)nc1` [Compound 267, N-((1S,3R)-3-(5-chloro-4-(1H-indol-3-yl)pyrimidin-2-ylamino)-1-methylcyclohexyl)-5-((E)-4-(dimethylamino)but-2-enamido)picolinamide], for which the values for the IC50 (in test [1]; in the test with A673 cells (Homo sapiens)) were under 100 nM and under 500 nM, respectively.

`C=CC(=O)N1CCC(CNC2(C)CCCC(Nc3ncc(Cl)c(-c4c[nH]c5ccccc45)n3)C2)CC1` (stereo not drawn) [Compound 268]: the values for the IC50 (in test [1]; with A673 cells) were under 100 nM and under 500 nM, respectively.

`CN(C)C/C=C/C(=O)Nc1ccc(C(=O)N[C@H]2CCC[C@@H](Nc3ncc(Cl)c(-c4cccc5c4ccn5C)n3)C2)nc1` [Compound 269, N-((1S,3R)-3-((5-chloro-4-(1-methyl-1H-indol-4-yl)pyrimidin-2-yl)amino)cyclohexyl)-5-((E)-4-(dimethylamino)but-2-enamido)picolinamide]: the IC50 in test [1] was under 100 nM; in the test on A673 cells (Homo sapiens), under 500 nM.

With `CN(C)C/C=C/C(=O)Nc1ccc(C(=O)N[C@H]2CCC[C@@H](Nc3ncc(Cl)c(C4C(=O)Nc5ccccc54)n3)C2)nc1` (stereo partly drawn) [Compound 282, N-((1S,3R)-3-(5-Chloro-4-(2-oxoindolin-3-yl)pyrimidin-2-ylamino)cyclohexyl)-5-((E)-4-(dimethylamino)but-2-enamido)picolinamide], the IC50 in test [1] was 100 to 1000 nM; with A673 cells (Homo sapiens), under 500 nM.

For the molecule `CN(C)C/C=C/C(=O)N1CCN([C@H]2CCC[C@@H](Nc3ncc(Cl)c(C4C(=O)Nc5ccccc54)n3)C2)CC1` (stereo partly drawn) [Compound 293, 3-(5-chloro-2-(((1R,3S)-3-(4-((E)-4-(dimethylamino)but-2-enoyl)piperazin-1-yl)cyclohexyl)amino)pyrimidin-4-yl)indolin-2-One], the IC50 is 100 to 1000 nM in test [1] and under 500 nM in the test on A673 cells (Homo sapiens).

With `CN(C)C/C=C/C(=O)Nc1ccc(CN[C@@]2(C)CCC[C@@H](Nc3ncc(Cl)c(-c4c[nH]c5ccccc45)n3)C2)nc1` [Compound 294, (E)-N-(6-(((1S,3R)-3-(5-chloro-4-(1H-indol-3-yl)pyrimidin-2-ylamino)-1-methylcyclohexylamino)methyl)pyridin-3-yl)-4-(dimethylamino)but-2-enamide], the concentration for half-maximal inhibition (IC50) in test [1] is under 100 nM; in the test with A673 cells (Homo sapiens), under 500 nM.

As for `C=CC(=O)N1CCN([C@H]2CCC[C@@H](Nc3ncc(Cl)c(-c4c[nH]c5ccc(C)cc45)n3)C2)CC1` [Compound 340, 1-(4-((1S,3R)-3-(5-chloro-4-(5-methyl-1H-indol-3-yl)pyrimidin-2-ylamino)cyclohexyl)piperazin-1-yl)prop-2-en-1-One], the values for the concentration for half-maximal inhibition (IC50) (in test [1]; with A673 cells (Homo sapiens)) were under 100 nM and under 500 nM, respectively.

Consider `C=CC(=O)N1CCN([C@H]2CCC[C@@H](Nc3ncc(Cl)c(-c4nnc5ccccn45)n3)C2)CC1` [Compound 344, 1-(4-((1S,3R)-3-((4-([1,2,4]triazolo[4,3-a]pyridin-3-yl)-5-chloropyrimidin-2-yl)amino)cyclohexyl)piperazin-1-yl)prop-2-en-1-One], for which the IC50 in test [1] is under 100 nM; in the test on A673 cells (Homo sapiens) it was under 500 nM.

For the molecule `C=CC(=O)N1CCC(CNC2CCC(Nc3ncc(Cl)c(-c4c[nH]c5ccccc45)n3)CC2)CC1` (stereo not drawn) [compound 163], the IC50 on CDK7 is under 100 nM; with Jurkat cells, under 500 nM; in the test with A673 cells, under 500 nM.

For `C=CC(=O)N1CCC(CNC2CCC(Nc3ncc(Cl)c(-c4c[nH]c5ccccc45)n3)CC2)CC1` (stereo not drawn) [compound 184], the IC50 was 100 to 1000 nM at CDK7, over 5000 nM in the test with Jurkat cells and over 5000 nM in the test on A673 cells.
